Data on eight molecules can be found in ChEMBL document CHEMBL1201862, “PubChem BioAssay data set” (2004).

Some test systems named below: A498; ACHN; EKVX; HL-60; HOP-92; NCI-H226; OVCAR-3; OVCAR-4; OVCAR-8; SF-268; SNB-75; SR; SW-620; TK-10; U-251; HCT-116; IGROV-1; RXF 393.
Assay in all cases: NCI anticancer screen, dose series, 48 h

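Tested at 5 concentrations; 48 h exposure; 96-well plates; endpoints linearly interpolated, else capped at highest concentration. At the GI50, growth is halved.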 Active and inactive are the calls of the source. Rule as the data show it: active = GI50 up to about 1.1 µM and inactive = higher. Bounds are passed on as bounds.

With `N#CC(c1ccc(Cl)cc1)c1cccc(C(C#N)c2ccc(Cl)cc2)n1` (configuration not stated), the GI50 in the experiment with A498 was 2.31 µM (inactive); in the experiment with ACHN, 10.8 µM (inactive); in the experiment with EKVX, 25 µM (inactive); with HL-60 it was 12.1 µM (inactive); in the experiment with HOP-92, 15.2 µM (inactive); in the experiment on NCI-H226 it was 37.4 µM (inactive). Also, the GI50 in the experiment with OVCAR-3 was 15.9 µM (inactive); with OVCAR-4, 32.6 µM (inactive); in the experiment on OVCAR-8, 55.1 µM (inactive); in the experiment with SF-268 it was 27 µM (inactive); with SNB-75, 15.9 µM (inactive); in the experiment on SR, 9.31 µM (inactive). For the same molecule, the GI50 in the experiment with SW-620 was 46 µM (inactive); with TK-10, 7.29 µM (inactive); in the experiment with U-251 it was 18.1 µM (inactive).

`C=C(CN(C)C)C(=O)c1ccc(C(=O)C(=C)CN(C)C)cc1`: the GI50 in the experiment on A498, with ACHN, in the experiment with EKVX, with HCT-116, in the experiment with HL-60 and with HOP-92 was > 100 µM (inactive) throughout. Also, the GI50 in the experiment on IGROV-1, in the experiment with NCI-H226, in the experiment on OVCAR-3, with OVCAR-4, in the experiment with OVCAR-8 and with RXF 393 was > 100 µM (inactive) throughout. For the same molecule, the GI50 with SF-268, in the experiment with SNB-75, with SR, in the experiment with SW-620, in the experiment on TK-10 and with U-251 was > 100 µM (inactive) each time.

With `CN1C2C=C(c3ccccc3)CC1CC2` (configuration not stated), the GI50 with A498, in the experiment on ACHN, with EKVX, in the experiment on HCT-116, in the experiment with HL-60 and in the experiment with HOP-92 was > 100 µM (inactive) each time. Moreover, the GI50 was > 100 µM (inactive) in the experiment with IGROV-1; > 100 µM (inactive) with OVCAR-3; > 100 µM (inactive) in the experiment with OVCAR-8; > 100 µM (inactive) in the experiment with RXF 393; > 100 µM (inactive) in the experiment with SF-268; 56.1 µM (inactive) in the experiment with SNB-75. Besides, the GI50 with SR, in the experiment with SW-620, with TK-10 and in the experiment on U-251 was > 100 µM (inactive) each time.

Take `Cc1cccc(C(C)C)c1NC(=O)C(=O)CC(=O)c1c(C)[n+]([O-])c2ccccc2[n+]1[O-]`: the GI50 is > 100 µM (inactive) in the experiment on A498; > 100 µM (inactive) with ACHN; 30.7 µM (inactive) with EKVX; 32.1 µM (inactive) with HCT-116; 41.2 µM (inactive) in the experiment on HL-60; 67 µM (inactive) in the experiment with HOP-92. The GI50 with IGROV-1 was 30.2 µM (inactive); with NCI-H226, > 100 µM (inactive); with OVCAR-3, 3.44 µM (inactive); with OVCAR-4 it was 25.4 µM (inactive); in the experiment with OVCAR-8 it was 31.9 µM (inactive); in the experiment with RXF 393 it was 44.2 µM (inactive). The GI50 in the experiment with SF-268 is 30.1 µM (inactive); with SNB-75, 28.5 µM (inactive); in the experiment with SR, 28.2 µM (inactive); in the experiment on SW-620, 33.1 µM (inactive); in the experiment with TK-10 it was > 100 µM (inactive); in the experiment with U-251 it was 34.1 µM (inactive).

With `CC1=NN(C(=O)CC(=O)Nc2ccccc2)C(=O)C1/N=N/c1ccc(S(N)(=O)=O)cc1` (configuration not stated), the GI50 with A498 was > 100 µM (inactive); in the experiment on ACHN, > 100 µM (inactive); with EKVX it was > 100 µM (inactive); in the experiment on HCT-116, 48 µM (inactive); in the experiment on HL-60, 18 µM (inactive); in the experiment with HOP-92, > 100 µM (inactive). Also, the GI50 in the experiment with IGROV-1 was 34.7 µM (inactive); with NCI-H226 it was 39.1 µM (inactive); with OVCAR-3, 66.2 µM (inactive); with OVCAR-4, 60.4 µM (inactive); with OVCAR-8, 61.5 µM (inactive); in the experiment on RXF 393, 70.8 µM (inactive). The GI50 was 80.9 µM (inactive) in the experiment on SF-268; 60.8 µM (inactive) in the experiment with SNB-75; 56.9 µM (inactive) with SR; 59.4 µM (inactive) in the experiment with SW-620; > 100 µM (inactive) in the experiment with TK-10; 56.4 µM (inactive) in the experiment on U-251.

Turning to `O=C1N(c2ccccc2)C(=O)C2(SC=NN2Cc2ccccc2)N1c1ccccc1` (configuration not stated), the GI50 was > 100 µM (inactive) in the experiment with A498; > 100 µM (inactive) in the experiment on ACHN; > 100 µM (inactive) in the experiment with EKVX; > 100 µM (inactive) with HCT-116; 51.2 µM (inactive) in the experiment on HL-60; > 100 µM (inactive) with HOP-92. For the same molecule, the GI50 in the experiment on IGROV-1, in the experiment on NCI-H226, with OVCAR-3, in the experiment on OVCAR-4, in the experiment on OVCAR-8 and with RXF 393 was > 100 µM (inactive) throughout. Moreover, the GI50 with SF-268 is > 100 µM (inactive); in the experiment on SNB-75 it was > 100 µM (inactive); in the experiment with SR it was 92.7 µM (inactive); in the experiment with SW-620 it was > 100 µM (inactive); in the experiment on TK-10, > 100 µM (inactive); in the experiment with U-251 it was > 100 µM (inactive).

Take `CC#C[I+]c1ccccc1`: the GI50 in the experiment on A498 is 60.5 µM (inactive); in the experiment on ACHN, 15.7 µM (inactive); in the experiment on EKVX, 16.2 µM (inactive); with HCT-116, 19 µM (inactive); in the experiment on HL-60, 15 µM (inactive); in the experiment with HOP-92, 16.4 µM (inactive). In addition, the GI50 in the experiment with IGROV-1 was 37.4 µM (inactive); in the experiment on NCI-H226, 33 µM (inactive); in the experiment on OVCAR-3, 17.5 µM (inactive); with OVCAR-4 it was 17.3 µM (inactive); in the experiment on OVCAR-8, 15.1 µM (inactive); with RXF 393 it was 19.1 µM (inactive). For the same molecule, the GI50 is 19.1 µM (inactive) in the experiment with SF-268; 50 µM (inactive) in the experiment on SNB-75; 15.1 µM (inactive) in the experiment with SR; 16.4 µM (inactive) in the experiment with TK-10; 15 µM (inactive) with U-251.

For the molecule `CC#C[P+](c1ccccc1)(c1ccccc1)c1ccccc1`, the GI50 was 39.4 µM (inactive) with A498; 3.99 µM (inactive) with ACHN; 4.83 µM (inactive) in the experiment with EKVX; 2.56 µM (inactive) in the experiment with HCT-116; 3.71 µM (inactive) in the experiment with HL-60; 2.16 µM (inactive) with HOP-92. Besides, the GI50 in the experiment on IGROV-1 was 6.95 µM (inactive); with NCI-H226, 3.13 µM (inactive); in the experiment with OVCAR-3, 3.09 µM (inactive); in the experiment with OVCAR-4 it was 6.49 µM (inactive); in the experiment with OVCAR-8, 0.962 µM (active); in the experiment on RXF 393 it was 5.25 µM (inactive). Moreover, the GI50 in the experiment with SF-268 was 2.09 µM (inactive); in the experiment with SNB-75, 2.43 µM (inactive); in the experiment with SR, 2.88 µM (inactive); with TK-10 it was 4.09 µM (inactive); in the experiment with U-251 it was 0.861 µM (active).
